# Legend:
# [1] = system: A549, MCF-7, LoVo, LoVo/DX, CCRF/CEM, and NHDF cells; assay: MTT assay, whole cell line panel; assay type: cell-based; settings: Homo sapiens, range across all cell lines, read-out: IC50 range over the cell lines
# Experimental: The anticancer activity of tested compounds was assessed on five human cell lines selected from the panel of tumor cell lines recommended by the National Cancer Institute: A495 (lung carcinoma), CCRF/CEM (acute lymphoblastic leukemia), LoVo and LoVo/DX (two types of colorectal: non-resistant and resistant to doxorubicin), and MCF-7 (breast adenocarcinoma). In addition, the NHDF cell line (normal human dermal fibroblasts) was used to estimate cytotoxicity to noncancer cells. The A549, CCRF/CEM, LoVo, LoVo/DX, and MCF-7 cells were obtained from ECACC, and NHDF cells from LONZA, Belgium. The A549 and MCF-7 cells were grown in EMEM medium, CCRF/CEM cells in RPMI-1640, LoVo and LoVo/DX cells in DMEM/F-12, and NHDF cells in DMEM without phenol red. The cells were seeded in […] in the biological assay, as recommended by the National Cancer Institute. All culture media were supplemented with L-glutamine, penicillin, streptomycin, and 10% fetal bovine serum (FBS). […]
# An assessment of the mitochondrial cell activity after applying tested compounds was carried out using the test MTT assay, recommended in the ISO 10993-5:2009 standard. […] After 30 min, absorbance at 570 nm in Victor2 microplate reader (PerkinElmer). Cell viability was determined as the IC50 ratio, i.e., the concentration of the compound in which the viability was reduced by half compared with the control.
# A549 cells = assay: Cell morphology, microscopic observation, A549; assay type: cell-based, human; settings: for cell morphology: 24 h incubation
# Experimental: Olivacine, similar to ellipticine, is a compound with fluorescent properties. Therefore, by analyzing the intensity of fluorescence over time, it is possible to assess the cellular pharmacokinetics of the compounds. At the same time, cell morphology was also assessed. The cells were seeded into a 96-well plate and cultured for 24 h (37 °C, 5% CO2) for cell adhesion to the surface and regeneration. […] The culture plate was placed under a Juli microscope, and the device with the plate inside was put in the CO2 incubator. Pictures were taken every 15 min for 24 h. We have prepared software that allowed us to measure the fluorescence intensity of the indicated cells. Fluorescence analysis was performed for all images (every 15 min) during a period of rapid change in fluorescence intensity and less often at a later period when it stabilized. Three independent experiments were carried out, always analyzing 50 selected cells.
compound,measurement,setting,value
"Cc1nccc2c(C)c3[nH]c4ccccc4c3cc12 [Olivacine, 1,5-dimethyl-6H-pyrido[4,3-b]carbazole]",IC50,[1],12 to 26 µM
same,cell morphology,A549 cells; 2 μM,Cytosol degradation
same,cell morphology,A549 cells; 20 μM,completely degraded
same,concentration at which growth inhibition is visible,"A549 cells; microscopic observation, 24 h",2 µM

# Source: article PMC9181543, “Lysosomal Exocytosis of Olivacine on the Way to Explain Drug Resistance in Cancer Cells” (International Journal of Molecular Sciences, 2022)
